Reference: patent US6706740B2, “Fungicidal heterocyclic aromatic amides and their compositions, methods of use and preparation” (Dow AgroSciences LLC, priority 1999, dated 2004)
Like-named read-outs stand apart in the source and are kept apart here.

Tests used:
[1] = tested on: Leptosphaeria nodorum—LEPTNO; experiment: Glume Blotch of Wheat, in vivo whole plant, 24 Hour Protectant; conditions: for pest or weed control at 100 ppm: Leptosphaeria, read-out: LEPTNO in vivo 1 Day Protectant
[2] = tested on: Mycosphaerella graminicola (Septoria tritici—SEPTTR); experiment: In vitro fungal growth inhibition, Mycosphaerella graminicola (SEPTTR); type: cell-based; conditions: Zymoseptoria tritici, read-out: SEPTTR in vitro Growth Inhibition
[3] = tested on: Puccinia recondita—PUCCRT; experiment: Brown Rust of Wheat, in vivo whole plant, 24 Hour Protectant; conditions: Puccinia, read-out: PUCCRT in vivo 1 Day Protectant
Septoria tritici—SEPTTR = experiment: Leaf Blotch of Wheat, in vivo whole plant, 24 Hour Protectant; conditions: Zymoseptoria tritici, 24 h, read-out: SEPTTR in vivo 1 Day Protectant
[4] = tested on: Rhizoctonia solani (RHIZSO); experiment: microbe, parasite or virus in culture; type: cell-based; conditions: Rhizoctonia solani, read-out: RHIZSO in vitro Growth Inhibition
[5] = tested on: Phytophthora infestans—PHYTIN; experiment: whole plant or invertebrate; type: in vivo; conditions: Phytophthora, in Solanum lycopersicum, 24 h, read-out: PHYTIN in vivo 1 Day Protectant
[6] = tested on: Stagonospora nodorum (Leptosphaeria nodorum—LEPTNO); experiment: In vitro fungal growth inhibition, Stagonospora nodorum (LEPTNO); type: cell-based; conditions: Leptosphaeria, read-out: LEPTNO in vitro Growth Inhibition
Erysiphe graminis—ERYSGT = experiment: Powdery Mildew of Wheat, in vivo whole plant, 24 Hour Protectant; conditions: Erysiphe, read-out: ERYSGT in vivo 1 Day Protectant
Ustilago maydis (USTIMA) = experiment: microbe, parasite or virus in culture; type: cell-based; conditions: Mycosarcoma maydis, read-out: USTIMA in vitro Growth Inhibition
[7] = tested on: Phytophthora infestans (PHYTIN); experiment: microbe, parasite or virus in culture; type: cell-based; conditions: Phytophthora infestans, read-out: PHYTIN in vitro Growth Inhibition
[8] = tested on: Magnaporthe grisea (Pyricularia oryzae—PYRIOR); experiment: microbe, parasite or virus in culture; type: cell-based; conditions: Pyricularia oryzae, read-out: PYRIOR in vitro Growth Inhibition
[9] = 100 ppm spray, wheat, 24 hour protectant, % control of fungal infection vs untreated plants
[10] = 100 ppm spray, wheat, 24 hour protectant, control of fungal infection vs untreated plants
[11] = wheat plants sprayed at 100 ppm, inoculated after 24 hours, control of fungal infection vs untreated plants

| SMILES | melting point | inhibition at 25 ppm ([2]; 25 ppm in growth medium) | inhibition at 25 ppm [4] | pest or weed control at 100 ppm [5] | inhibition at 25 ppm ([6]; 25 ppm in growth medium) | inhibition at 25 ppm (Ustilago maydis (USTIMA)) | inhibition at 25 ppm [7] | inhibition at 25 ppm [8] | pest or weed control at 100 ppm [1, 11] | inhibition at 25 ppm ([2]; 25 ppm in the growth medium) | pest or weed control at 100 ppm [3, 11] | pest or weed control at 100 ppm (Septoria tritici—SEPTTR; [11]) | inhibition at 25 ppm ([6]; 25 ppm in the growth medium) | pest or weed control at 100 ppm (Erysiphe graminis—ERYSGT; [11]) | other results |
| --- | --- | --- | --- | --- | --- | --- | --- | --- | --- | --- | --- | --- | --- | --- | --- |
| COCCC(=O)Oc1c(OC)ccnc1C(=O)Nc1ccc(C(=O)Nc2cccc(C(F)(F)F)c2)cc1 [Compound 713] | 164 to 167 °C | < 80% | < 80% | < 25% | < 80% | < 80% | < 80% | < 80% | – | – | – | – | – | – | pest or weed control at 100 ppm [1, 9]: 25 to 74%; pest or weed control at 100 ppm [3, 9]: < 25%; pest or weed control at 100 ppm (Septoria tritici—SEPTTR; [9]): < 25%; pest or weed control at 100 ppm (Erysiphe graminis—ERYSGT; [9]): < 25% |
| COc1ccnc(C(=O)Nc2ccc(C(=O)Oc3ccc(C(F)(F)F)cc3)cc2)c1OC(C)=O [Compound 717] | 203 to 205 °C | < 80% | < 80% | < 25% | < 80% | < 80% | < 80% | < 80% | – | – | – | – | – | – | pest or weed control at 100 ppm [1, 9]: 25 to 74%; pest or weed control at 100 ppm [3, 9]: < 25%; pest or weed control at 100 ppm (Septoria tritici—SEPTTR; [9]): 25 to 74%; pest or weed control at 100 ppm (Erysiphe graminis—ERYSGT; [9]): < 25% |
| COc1ccnc(C(=O)NC2COC(=O)[C@H]3CCCC[C@@H]3C(=O)OC2)c1O [Compound 377] | 234 to 235 °C | < 80% | < 80% | < 25% | < 80% | < 80% | > 80% | < 80% | – | – | – | – | – | – | pest or weed control at 100 ppm [1, 10]: 25 to 74%; pest or weed control at 100 ppm [3, 10]: < 25%; pest or weed control at 100 ppm (Septoria tritici—SEPTTR; [10]): < 25%; pest or weed control at 100 ppm (Erysiphe graminis—ERYSGT; [10]): < 25% |
| O=C(NCCc1ccc(Cl)cc1)c1cccnc1O [Compound 518] | 219 to 221 °C | – | < 80% | 25 to 74% | – | < 80% | < 80% | < 80% | < 25% | < 80% | < 25% | < 25% | < 80% | < 25% | – |
| Cc1nc(O)c(C(=O)NC2CC(C)(C)CC(C)(C)C2)cc1Cl [Compound 530] | 329 to 331 °C | – | < 80% | < 25% | – | < 80% | < 80% | < 80% | 25 to 74% | < 80% | 25 to 74% | 25 to 74% | < 80% | < 25% | – |
| C=C1COC(=O)[C@@H](NC(=O)c2nccc(OC)c2OC(C)=O)COC(=O)C1 [Compound 595] | 163 to 164 °C | – | < 80% | < 25% | – | < 80% | < 80% | < 80% | 25 to 74% | < 80% | < 25% | < 25% | < 80% | < 25% | – |
| COc1ccnc(C(=O)Nc2ccc(Oc3cc(C(F)(F)F)nc(C(F)(F)F)c3)cc2)c1O [Compound 466] | 198 to 200 °C | – | < 80% | < 25% | – | < 80% | < 80% | < 80% | 25 to 74% | < 80% | < 25% | 25 to 74% | > 80% | < 25% | – |
| COc1ccnc(C(=O)Nc2ccc(NC(=O)c3cccc(C(F)(F)F)c3)cc2)c1OC(C)=O [Compound 719] | 124 to 126 °C | < 80% | < 80% | < 25% | < 80% | < 80% | < 80% | < 80% | – | – | – | – | – | – | pest or weed control at 100 ppm [1, 9]: 25 to 74%; pest or weed control at 100 ppm [3, 9]: < 25%; pest or weed control at 100 ppm (Septoria tritici—SEPTTR; [9]): < 25%; pest or weed control at 100 ppm (Erysiphe graminis—ERYSGT; [9]): < 25% |
| Cc1nc(O)c(C(=O)N[C@H]2COC(=O)[C@H](Cc3ccccc3)[C@@H](OC(=O)C(C)C)[C@H](C)OC2=O)nc1C [Compound 536] | 80 to 83 °C | – | < 80% | < 25% | – | < 80% | < 80% | < 80% | – | > 80% | 25 to 74% | 25 to 74% | < 80% | < 25% | LEPTNO in vivo 1 Day Protectant [1, 11]: + + |
| COc1ccnc(C(=O)Nc2ccc(Oc3cc(C(F)(F)F)ccn3)cc2)c1O [Compound 461] | 169 to 171 °C | – | < 80% | < 25% | – | < 80% | < 80% | < 80% | 25 to 74% | < 80% | 25 to 74% | 25 to 74% | < 80% | < 25% | – |
| COc1ccnc(C(=O)Nc2cccc(OC3CC(C)(C)OC(C)(C)C3)c2)c1O [Compound 460] | 149 to 153 °C | < 80% | < 80% | < 25% | < 80% | < 80% | < 80% | < 80% | – | – | – | – | – | – | pest or weed control at 100 ppm [1, 10]: 25 to 74%; pest or weed control at 100 ppm [3, 10]: 25 to 74%; pest or weed control at 100 ppm (Septoria tritici—SEPTTR; [10]): 25 to 74%; pest or weed control at 100 ppm (Erysiphe graminis—ERYSGT; [10]): 25 to 74% |
